Test system: CD1 female mouse brain lipidome
Assay: Brain-region lipid levels (HPLC/MS/MS lipidomics) 2 h after single i.p. 3 mg/kg CP 55,940 vs vehicle
Assay type: in vivo
Set-up: N-arachidonoyl phenylalanine level, Mean / N-stearoyl tryptophan level, Mean / N-stearoyl proline level, Mean / N-stearoyl leucine level, Mean / N-stearoyl phenylalanine level, Mean / N-stearoyl serine level, Mean / N-stearoyl methionine level, Mean: unit: moles per gram
Protocol: The Bloomington Institutional Animal Care and Use Committee of Indiana University reviewed and approved the animal procedures. Female mice from the CD1 strain were utilized to match our study examining THC’s effects on the brain lipidome ([Leishman et al., 2018]). Mice were given a single i.p. injection of either 3 mg/kg CP or 1:1:18 cremophor:ethanol:saline vehicle (please refer to the section “3 mg/kg CP Is Relevant for Synthetic Cannabinoid Abuse and Has Stronger Effects on the Female Mouse Brain Lipidome During Adolescence” for a justification of dose and use of female mice). Three different age groups were given injections: PND 35 and PND 50 adolescents, and adult mice (PND 113). At least eight mice in each age group received CP and at least eight received vehicle. Matching the THC study time course ([Leishman et al., 2018]), mice were sacrificed via rapid decapitation 2 h after injection. Brains were immediately removed and flash-frozen in liquid nitrogen, and then stored at -80°C until dissections were performed. Brains were dissected on an ice-cold dissection plate into the following regions: STR, HIPP, CER, THAL, CTX, HYP, MID, and STEM. These abbreviations for these brain areas will be used exclusively when discussing the results generated by these specific dissections. Each dissected area was immediately placed in liquid nitrogen and then stored at -80°C until used for lipid extraction.
Tissue extracts were performed as previously described ([Bradshaw et al., 2006]; [Stuart et al., 2013]; [Raboune et al., 2014]; [Leishman et al., 2016a],[b], [2017], [2018]). First, samples were shock frozen in liquid nitrogen, weighed, and transferred to a centrifuge tube. The mass of the largest sample was multiplied by 50 to determine how many milliliters of HPLC-grade methanol (Fisher, Fair Lawn, NJ, United States) to add. Then, samples were spiked with 500 pmol deuterium-labeled NAGly (d8NAGly; Cayman Chemical, Ann Arbor, MI, United States). Samples were placed on ice in darkness for 2 h then individually homogenized and centrifuged at 19,000 × g for 20 min at 20°C. Supernatants were diluted with HPLC water (purified in house) to make a solution of 75% water, 25% supernatant. Lipids were partially purified on C18 solid phase extraction columns (Agilent, Palo Alto, CA, United States). A series of four elutions with 1.5 mL of 60%, 75%, 85%, and 100% methanol were collected ([Stuart et al., 2013]; [Leishman et al., 2016a],[b], [2018]).
As previously described ([Bradshaw et al., 2006]; [Tan et al., 2006]; [Smoum et al., 2010]; [Stuart et al., 2013]; [Tortoriello et al., 2013]; [Raboune et al., 2014]; [Leishman et al., 2016a],[b], [2017], [2018]), samples were analyzed using an Applied Biosystems API 3000 triple quadrupole mass spectrometer with electrospray ionization (Foster City, CA, United States). Using an Agilent XDB-C18 reversed phase analytical column and optimized mobile phase gradients, 20 μL from each elution were chromatographed. Two Shimadzu 10ADvp pumps (Columbia, MD, United States) provided the pressure for gradient elution. Mobile phase A: 20% methanol, 80% water (v/v) and 1 mM ammonium acetate (Sigma, St. Louis, MO, United States). Mobile phase B: 100% methanol, 1 mM ammonium acetate. Every method run began with 0% mobile phase B, reached 100% mobile phase B flowing at 0.2 mL/min, and gradually returned to 0% mobile phase B.
This screening library will be referred to as the lipidome when discussing data from this study. HPLC/MS/MS data were analyzed using Analyst software (Applied Biosystems) ([Bradshaw et al., 2006]; [Tan et al., 2006]; [Stuart et al., 2013]; [Tortoriello et al., 2013]; [Raboune et al., 2014]; [Leishman et al., 2016a],[b], [2017], [2018]). Chromatograms (Supplementary Figure 3) were generated by determining the retention time of analytes from the analytical column with a [M-1] or [M+1] parent peak and a fragmentation peak corresponding to the programmed values. […]

[1] = cerebellum, PND 35, 3 mg/kg CP 55,940
[2] = cerebellum, PND35 WT female mice, 3mg/kg CP 55,940
[3] = cortex, PND 50, 3 mg/kg CP 55,940

CCCCCCC(C)(C)c1ccc([C@@H]2C[C@H](O)CC[C@H]2CCCO)c(O)c1 [CP 55,940]
N-oleoyl phenylalanine: Magnitude (x Veh level) [1]: 1.14 x Veh level | N-palmitoyl leucine: Direction (relative to Veh) [1]: ↑ | N-palmitoyl leucine: Magnitude (x Veh level) [1]: 1.52 x Veh level | N-palmitoyl phenylalanine: Direction (relative to Veh) [1]: ↑ | N-palmitoyl phenylalanine: Magnitude (x Veh level) [1]: 1.43 x Veh level | N-palmitoyl proline: Direction (relative to Veh) [1]: ↓ | N-palmitoyl proline: Magnitude (x Veh level) [1]: 0.87 x Veh level | N-palmitoyl serine: Direction (relative to Veh) [1]: ↓ | N-palmitoyl serine: Magnitude (x Veh level) [1]: 0.81 x Veh level | N-palmitoyl tyrosine: Direction (relative to Veh) [1]: ↑ | N-palmitoyl tyrosine: Magnitude (x Veh level) [1]: 1.19 x Veh level | N-palmitoyl valine: Direction (relative to Veh) [1]: ↑ | N-palmitoyl valine: Magnitude (x Veh level) [1]: 1.70 x Veh level | 2-arachidonoyl glycerol level, Mean [2]: 2.68E-10 | 2-linoleoyl glycerol level, Mean [2]: 1.01E-10 | 2-oleoyl glycerol level, Mean [2]: 7.55E-10 | 2-palmitoyl glycerol level, Mean [2]: 3.01E-10 | 6-ketoPGF1α level, Mean [2]: 8.74E-12 | 11-OH-THC level, Mean [2]: BDL | 11-nor-9-carboxyTHC level, Mean [2]: BDL | Arachidonic acid level, Mean [2]: 1.26E-09 | Cannabidiol level, Mean [2]: BDL | Linoleic acid level, Mean [2]: 4.27E-10 | N- stearoyl valine level, Mean [2]: PISSR | N-arachidonoyl GABA level, Mean [2]: 9.02E-12 | N-arachidonoyl alanine level, Mean [2]: 5.29E-12 | N-arachidonoyl dopamine level, Mean [2]: BDL | N-arachidonoyl ethanolamine level, Mean [2]: 1.17E-11 | N-arachidonoyl glycine level, Mean [2]: 2.55E-11 | N-arachidonoyl methionine level, Mean [2]: 8.56E-13 | N-arachidonoyl phenylalanine level, Mean [2]: 1.22E-12 | N-arachidonoyl proline level, Mean [2]: BDL | N-arachidonoyl serine level, Mean [2]: 5.34E-12 | N-arachidonoyl taurine level, Mean [2]: 7.17E-11 | N-arachidonoyl tryptophan level, Mean [2]: PISSR | N-arachidonoyl tyrosine level, Mean [2]: 8.32E-13 | N-docosahexaenoyl GABA level, Mean [2]: 2.27E-12 | N-docosahexaenoyl alanine level, Mean [2]: 3.11E-12 | N-docosahexaenoyl ethanolamine level, Mean [2]: 2.05E-11 | N-docosahexaenoyl glycine level, Mean [2]: 1.34E-11 | N-docosahexaenoyl leucine level, Mean [2]: 7.43E-13 | N-docosahexaenoyl methionine level, Mean [2]: 5.43E-13 | N-docosahexaenoyl phenylalanine level, Mean [2]: 1.05E-12 | N-docosahexaenoyl proline level, Mean [2]: BDL | N-docosahexaenoyl serine level, Mean [2]: 2.79E-11 | N-docosahexaenoyl tryptophan level, Mean [2]: PISSR | N-docosahexaenoyl tyrosine level, Mean [2]: 1.57E-12 | N-docosahexaenoyl valine level, Mean [2]: BDL | N-linoleoyl GABA level, Mean [2]: 7.16E-13 | N-linoleoyl alanine level, Mean [2]: 1.26E-12 | N-linoleoyl ethanolamine level, Mean [2]: 2.95E-11 | N-linoleoyl glycine level, Mean [2]: 3.27E-12 | N-linoleoyl leucine level, Mean [2]: 3.65E-13 | N-linoleoyl methionine level, Mean [2]: PISSR | N-linoleoyl phenylalanine level, Mean [2]: 2.56E-13 | N-linoleoyl proline level, Mean [2]: BDL | N-linoleoyl serine level, Mean [2]: 4.55E-11 | N-linoleoyl tryptophan level, Mean [2]: PISSR | N-linoleoyl tyrosine level, Mean [2]: PISSR | N-linoleoyl valine level, Mean [2]: BDL | N-nervonoyl valine level, Mean [2]: BDL | N-oleoyl GABA level, Mean [2]: 3.82E-12 | N-oleoyl alanine level, Mean [2]: 6.55E-12 | N-oleoyl dopamine level, Mean [2]: BDL | N-oleoyl ethanolamine level, Mean [2]: 7.98E-11 | N-oleoyl glycine level, Mean [2]: 1.52E-11 | N-oleoyl leucine level, Mean [2]: 1.49E-12 | N-oleoyl methionine level, Mean [2]: 1.2E-12 | N-oleoyl phenylalanine level, Mean [2]: 1.43E-12 | N-oleoyl proline level, Mean [2]: 3.42E-13 | N-oleoyl serine level, Mean [2]: 2.53E-10 | N-oleoyl tryptophan level, Mean [2]: 1.48E-13 | N-oleoyl tyrosine level, Mean [2]: 7.24E-13 | N-oleoyl valine level, Mean [2]: PISSR | N-palmitoyl GABA level, Mean [2]: 7.17E-12 | N-palmitoyl alanine level, Mean [2]: 7.87E-12 | N-palmitoyl ethanolamine level, Mean [2]: 3.88E-11 | N-palmitoyl glycine level, Mean [2]: 2.65E-11 | N-palmitoyl leucine level, Mean [2]: 2.75E-12 | N-palmitoyl methionine level, Mean [2]: 1.86E-12 | N-palmitoyl phenylalanine level, Mean [2]: 2.82E-12 | N-palmitoyl proline level, Mean [2]: 7E-13 | N-palmitoyl serine level, Mean [2]: 5.23E-11 | N-palmitoyl tryptophan level, Mean [2]: 3.12E-13 | N-palmitoyl tyrosine level, Mean [2]: 1.58E-12 | N-palmitoyl valine level, Mean [2]: 1.73E-13 | N-stearoyl GABA level, Mean [2]: 5.88E-12 | N-stearoyl alanine level, Mean [2]: 1.31E-11 | N-stearoyl ethanolamine level, Mean [2]: 1.11E-11 | N-stearoyl glycine level, Mean [2]: 1.37E-11 | N-stearoyl leucine level, Mean [2]: 9.56E-13 | N-stearoyl methionine level, Mean [2]: 1.59E-12 | N-stearoyl phenylalanine level, Mean [2]: 1.92E-12 | N-stearoyl proline level, Mean [2]: 3.97E-13 | N-stearoyl serine level, Mean [2]: 2.93E-11 | N-stearoyl tryptophan level, Mean [2]: 6.79E-13 | N-stearoyl tyrosine level, Mean [2]: 8.44E-14 | Oleic acid level, Mean [2]: 1.03E-09 | PGE2 level, Mean [2]: 4.01E-10 | PhosphoLEA level, Mean [2]: 1.04E-11 | THC level, Mean [2]: BDL | 2-linoleoyl glycerol Direction (relative to Veh) [3]: ↓ | 2-oleoyl glycerol, Direction (relative to Veh) [3]: ↓
